Laboratory results as given in the NIST ThermoML archive (doi:10.1021/je030102f).
Numbers after ± are expanded uncertainties.

Test: xn = mol fraction of the nth substance listed
Conditions: 101.33 kPa, Liquid, vibrating tube

CCC(=O)O [propanoic acid] + CC(C)=O
mass density [kg/m3]
Conditions	x2 = 0	x2 = 0.1014	x2 = 0.1991	x2 = 0.3046	x2 = 0.4011	x2 = 0.5001	x2 = 0.603	x2 = 0.6887	x2 = 0.7703	x2 = 0.8987
283.15 K	1004.11 ± 0.51	987.375 ± 0.47	970.353 ± 0.43	951.246 ± 0.39	933.088 ± 0.35	913.785 ± 0.33	892.899 ± 0.28	874.585 ± 0.25	856.85 ± 0.22	826.598 ± 0.17
288.15 K	998.688 ± 0.51	982.013 ± 0.47	965.023 ± 0.43	945.944 ± 0.39	927.765 ± 0.35	908.446 ± 0.32	887.52 ± 0.28	869.18 ± 0.25	851.407 ± 0.22	821.062 ± 0.17
293.15 K	993.261 ± 0.51	976.644 ± 0.47	959.68 ± 0.43	940.613 ± 0.39	922.423 ± 0.35	903.081 ± 0.32	882.117 ± 0.28	863.74 ± 0.25	845.923 ± 0.22	815.482 ± 0.17
298.14 K	–	–	954.344 ± 0.42	–	917.072 ± 0.35	897.705 ± 0.32	–	858.28 ± 0.25	840.415 ± 0.22	809.87 ± 0.17
298.15 K	987.847 ± 0.51	971.282 ± 0.46	–	935.277 ± 0.38	–	–	876.699 ± 0.28	–	–	–
303.14 K	982.44 ± 0.5	965.92 ± 0.46	948.999 ± 0.42	929.933 ± 0.38	911.708 ± 0.35	892.312 ± 0.32	871.26 ± 0.28	852.794 ± 0.25	834.877 ± 0.22	804.221 ± 0.17
308.15 K	977.037 ± 0.5	960.555 ± 0.46	943.653 ± 0.42	924.579 ± 0.38	906.33 ± 0.35	886.9 ± 0.32	865.798 ± 0.28	847.276 ± 0.24	829.305 ± 0.22	798.532 ± 0.17
313.14 K	971.635 ± 0.5	955.192 ± 0.46	–	–	–	–	860.309 ± 0.28	–	823.695 ± 0.21	–
313.15 K	–	–	938.294 ± 0.42	919.21 ± 0.38	900.935 ± 0.34	881.462 ± 0.32	–	841.731 ± 0.24	–	792.797 ± 0.17
318.14 K	966.24 ± 0.49	949.825 ± 0.45	932.928 ± 0.41	913.828 ± 0.38	895.523 ± 0.34	876.007 ± 0.32	854.791 ± 0.28	836.154 ± 0.24	818.051 ± 0.21	787.018 ± 0.17
323.14 K	960.843 ± 0.49	–	927.551 ± 0.41	908.43 ± 0.37	890.087 ± 0.34	–	–	–	812.366 ± 0.21	781.194 ± 0.17
323.15 K	–	944.448 ± 0.45	–	–	–	–	849.244 ± 0.27	830.541 ± 0.24	–	–

CCC(=O)O [propanoic acid] + O
mass density [kg/m3]
Conditions	x1 = 0.1298	x1 = 0.2029	x1 = 0.3012	x1 = 0.4007	x1 = 0.5008	x1 = 0.5989	x1 = 0.6974	x1 = 0.7965	x1 = 0.8915	x1 = 1
283.15 K	1026.89 ± 0.13	1033.97 ± 0.16	1034.47 ± 0.21	1032.63 ± 0.25	1029.26 ± 0.29	1025.17 ± 0.34	1020.51 ± 0.38	1015.43 ± 0.43	1010.32 ± 0.47	1004.11 ± 0.51
288.14 K	–	–	–	1027.99 ± 0.25	–	–	–	–	1005.04 ± 0.46	–
288.15 K	1023.97 ± 0.13	1030.05 ± 0.16	1029.92 ± 0.21	–	1024.44 ± 0.29	1020.22 ± 0.34	1015.46 ± 0.38	1010.26 ± 0.42	–	998.688 ± 0.51
293.14 K	–	1026.08 ± 0.16	1025.58 ± 0.2	–	–	–	1010.39 ± 0.38	–	–	–
293.15 K	1020.98 ± 0.13	–	–	1023.31 ± 0.25	1019.59 ± 0.29	1015.26 ± 0.34	–	1005.1 ± 0.42	999.76 ± 0.46	993.261 ± 0.51
298.14 K	–	1022.05 ± 0.16	1021.14 ± 0.2	–	1014.72 ± 0.29	–	1005.31 ± 0.38	999.927 ± 0.42	–	–
298.15 K	1017.85 ± 0.13	–	–	1018.61 ± 0.25	–	1010.28 ± 0.34	–	–	994.478 ± 0.46	987.847 ± 0.51
303.14 K	1014.61 ± 0.13	–	1016.76 ± 0.2	1013.88 ± 0.25	1009.8 ± 0.29	1005.29 ± 0.33	–	994.744 ± 0.42	–	982.44 ± 0.5
303.15 K	–	1017.97 ± 0.16	–	–	–	–	1000.22 ± 0.38	–	989.192 ± 0.46	–
308.14 K	–	–	–	–	–	–	–	989.551 ± 0.42	–	–
308.15 K	1011.28 ± 0.13	1013.84 ± 0.16	1012.25 ± 0.2	1009.12 ± 0.25	1004.17 ± 0.29	1000.27 ± 0.33	995.12 ± 0.37	–	983.905 ± 0.46	977.037 ± 0.5
313.14 K	1007.85 ± 0.13	1009.64 ± 0.16	1007.69 ± 0.2	–	999.956 ± 0.29	995.242 ± 0.33	990.001 ± 0.37	–	978.613 ± 0.45	971.635 ± 0.5
313.15 K	–	–	–	1004.33 ± 0.25	–	–	–	984.345 ± 0.41	–	–
318.14 K	1004.32 ± 0.13	1005.39 ± 0.16	1003.09 ± 0.2	999.507 ± 0.24	994.902 ± 0.29	990.186 ± 0.33	984.864 ± 0.37	979.126 ± 0.41	973.307 ± 0.45	966.24 ± 0.49
323.14 K	1000.71 ± 0.14	1001.09 ± 0.16	998.434 ± 0.2	994.651 ± 0.24	–	985.106 ± 0.33	–	973.895 ± 0.41	967.999 ± 0.45	–
323.15 K	–	–	–	–	990.008 ± 0.29	–	979.705 ± 0.37	–	–	960.843 ± 0.49
